What follows are molecules tested against T1, human Werner helicase (WRN-BV08, Uniprot Q14191, amino acids 517-1235 with L1074F point mutation) (Homo sapiens, UniProt Q14191, L1074F) (assay: WRN (BV08) ADP-Glo Assay). Conditions: 0.15 nM WRN, 5 μM ATP, 0.1 nM DNA duplex, 15 min preincubation, 60 min at 25° C., pH 7.5, 1% DMSO; read-out: ADP-Glo_hWRN_IC50.
T1 construct: Uniprot Q14191, amino acids 517-1235 with L1074F point mutation; TEV-cleavable 8×His (C, cleaved yes); made in house; host or cells: Sf9 insect cells (baculovirus)
T1 sequence (Q14191 with tags, fused parts or gaps L1074F limits assumed): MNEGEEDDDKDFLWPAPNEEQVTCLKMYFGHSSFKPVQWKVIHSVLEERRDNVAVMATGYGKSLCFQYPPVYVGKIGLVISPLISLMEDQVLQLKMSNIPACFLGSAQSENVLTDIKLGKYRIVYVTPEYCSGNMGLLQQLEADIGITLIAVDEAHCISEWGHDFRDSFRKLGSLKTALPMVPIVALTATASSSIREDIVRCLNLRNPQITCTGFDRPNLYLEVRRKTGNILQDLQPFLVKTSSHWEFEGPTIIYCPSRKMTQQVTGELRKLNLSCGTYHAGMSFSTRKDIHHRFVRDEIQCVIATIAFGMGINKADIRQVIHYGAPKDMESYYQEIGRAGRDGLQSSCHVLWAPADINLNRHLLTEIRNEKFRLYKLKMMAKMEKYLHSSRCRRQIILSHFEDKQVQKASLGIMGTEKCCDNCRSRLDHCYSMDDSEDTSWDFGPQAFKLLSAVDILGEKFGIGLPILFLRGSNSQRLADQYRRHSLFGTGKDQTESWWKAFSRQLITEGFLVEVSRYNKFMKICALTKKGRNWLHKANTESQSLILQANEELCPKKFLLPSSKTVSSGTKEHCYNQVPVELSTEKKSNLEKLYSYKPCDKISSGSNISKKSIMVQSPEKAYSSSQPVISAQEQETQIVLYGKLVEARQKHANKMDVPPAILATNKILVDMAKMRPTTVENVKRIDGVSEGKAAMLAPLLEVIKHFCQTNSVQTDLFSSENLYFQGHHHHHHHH
Assay type: biochemical
Summary of the method: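 Helicase ATPase activity is measured at 25 °C over 60 min using 0.15 nM enzyme, 5 μM ATP and 0.1 nM DNA duplex, final DMSO 1%. ADP production is detected by luminescence, with IC50 derived by curve fitting.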

SMILES | IC50 [nM]
O=C(Cc1ccc(S(F)(F)(F)(F)F)cc1)N(Cc1nc(C2CCC2)cs1)C1C=CS(=O)(=O)C1 (stereo not shown) [I-14, N-[(4-cyclobutyl-1,3-thiazol-2-yl)methyl]-N-(1,1-dioxo-2,3-dihydro-1lambda6-thiophen-3-yl)-2-[4-(pentafluoro-lambda6-sulfanyl)phenyl]acetamide] | < 500
CC(C)(O)c1cc(CN(C(=O)Cn2cc(-c3ccc(F)cc3)cn2)[C@@H]2C=CS(=O)(=O)C2)ccn1 [I-15, N-[(3R)-1,1-dioxo-2,3-dihydro-1lambda6-thiophen-3-yl]-2-[4-(4-fluorophenyl)-1H-pyrazol-1-yl]-N-{[2-(2-hydroxypropan-2-yl)pyridin-4-yl]methyl}acetamide] | < 500
CC(C)(O)c1cc(CN(C(=O)Cc2ccc(S(F)(F)(F)(F)F)cc2)[C@@H]2C=CS(=O)(=O)C2)ccn1 [I-16, (R)—N-(1,1-dioxido-2,3-dihydrothiophen-3-yl)-N-((2-(2-hydroxypropan-2-yl)pyridin-4-yl)methyl)-2-(4-(pentafluoro-λ^6-sulfaneyl)phenyl)acetamide] | < 500
COc1cc(CN(C(=O)Cc2ccc(S(F)(F)(F)(F)F)cc2)[C@@H]2C=CS(=O)(=O)C2)ccn1 [I-17, N-[(3R)-1,1-dioxo-2,3-dihydro-1lambda6-thiophen-3-yl]-N-[(2-methoxypyridin-4-yl)methyl]-2-[4-(pentafluoro-lambda6-sulfanyl)phenyl]acetamide] | < 500
COC(C(=O)N(Cc1ccnc(C(C)(C)O)c1)C1C=CS(=O)(=O)C1)c1ccc(-c2ccc(F)c(F)c2)cc1F (stereo not shown) [I-18, N-(1,1-dioxo-2,3-dihydro-1lambda6-thiophen-3-yl)-N-{[2-(2-hydroxypropan-2-yl)pyridin-4-yl]methyl}-2-methoxy-2-{3,3′,4′-trifluoro-[1,1′-biphenyl]-4-yl}acetamide] | < 500
CC(C)(O)c1cc(CN(C(=O)Cc2ccc(-c3cc(F)c(F)c(F)c3)cc2F)C2C=CS(=O)(=O)C2)ccn1 (stereo not shown) [I-19, N-(1,1-dioxo-2,3-dihydro-1lambda6-thiophen-3-yl)-N-{[2-(2-hydroxypropan-2-yl)pyridin-4-yl]methyl}-2-{3,3′,4′,5′-tetrafluoro-[1,1′-biphenyl]-4-yl}acetamide] | < 500
COCCN(C)C(=O)C(C(=O)N(Cc1ccnc(C(C)(C)O)c1)[C@@H]1C=CS(=O)(=O)C1)c1ccc(-c2ccc(F)c(F)c2)cc1F (stereo partly drawn) [I-20, N′-[(3R)-1,1-dioxo-2,3-dihydro-1lambda6-thiophen-3-yl]-N′-{[2-(2-hydroxypropan-2-yl)pyridin-4-yl]methyl}-N-(2-methoxyethyl)-N-methyl-2-{3,3′,4′-trifluoro-[1,1′-biphenyl]-4-yl}propanediamide] | < 500
CN(C)C(=O)C(C(=O)N(Cc1ccnc(C(C)(C)O)c1)C1C=CS(=O)(=O)C1)c1ccc(-c2ccc(F)cc2)cc1F (stereo not shown) [I-21, 2-{3,4′-difluoro-[1,1′-biphenyl]-4-yl}-N-(1,1-dioxo-2,3-dihydro-1lambda6-thiophen-3-yl)-N-{[2-(2-hydroxypropan-2-yl)pyridin-4-yl]methyl}-N′,N′-dimethylpropanediamide] | < 500
COc1cc(CN(C(=O)Cc2ccc(S(F)(F)(F)(F)F)cc2F)C2C=CS(=O)(=O)C2)ccn1 (stereo not shown) [I-22, N-(1,1-dioxido-2,3-dihydrothiophen-3-yl)-2-(2-fluoro-4-(pentafluoro-λ^6-sulfaneyl)phenyl)-N-((2-methoxypyridin-4-yl)methyl)acetamide] | < 500
CN(C)C(=O)C(C(=O)N(Cc1nc(C2CC2)cs1)C1C=CS(=O)(=O)C1)c1ccc(-c2ccc(F)cc2)cc1F (stereo not shown) [I-23, N′-[(4-cyclopropyl-1,3-thiazol-2-yl)methyl]-2-{3,4′-difluoro-[1,1′-biphenyl]-4-yl}-N′-(1,1-dioxo-2,3-dihydro-1lambda6-thiophen-3-yl)-N,N-dimethylpropanediamide] | < 500
